Experimental data from ChEMBL document CHEMBL4007389, “Discovery and evaluation of inhibitors to the immunosuppressive enzyme indoleamine 2,3-dioxygenase 1 (IDO1): Probing the active site-inhibitor interactions” (Eur J Med Chem, 2017).

Legend:
[1] = Cytotoxicity against mouse LLTC cells assessed as reduction in cell viability after 24 hrs by MTT assay; assay type: cell-based; settings: read-out: LC50
[2] = species: Homo sapiens; test: Selectivity ratio of IC50 for recombinant human IDO1 S167A mutant expressed in Escherichia coli SG13009(pREP4) to IC50 for recombinant human IDO1 expressed in bacterial expression system
[3] = molecular target: T1, Indoleamine 2,3-dioxygenase 1 (Homo sapiens, UniProt P14902); test: Inhibition of full length recombinant human His-tagged IDO1 expressed in mouse LLTC cells using L-tryptophan as substrate after 24 hrs; assay type: cell-based
Target sequence in this assay (P14902 whole entry): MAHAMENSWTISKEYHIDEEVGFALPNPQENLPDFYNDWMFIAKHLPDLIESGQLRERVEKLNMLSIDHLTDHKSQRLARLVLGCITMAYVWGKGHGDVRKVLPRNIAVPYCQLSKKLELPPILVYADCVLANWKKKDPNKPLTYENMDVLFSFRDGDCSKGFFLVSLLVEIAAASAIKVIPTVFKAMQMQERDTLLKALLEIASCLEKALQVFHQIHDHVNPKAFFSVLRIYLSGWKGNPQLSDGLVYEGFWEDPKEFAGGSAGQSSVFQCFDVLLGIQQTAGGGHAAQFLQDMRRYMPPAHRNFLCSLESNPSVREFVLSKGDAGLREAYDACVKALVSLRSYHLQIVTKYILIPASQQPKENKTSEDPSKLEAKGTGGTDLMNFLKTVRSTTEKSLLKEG

[4] = molecular target: T1, Indoleamine 2,3-dioxygenase 1; test: Inhibition of recombinant human IDO1 expressed in bacterial expression system using L-Tryptophan as substrate after 25 mins in presence of GSH and tween20 by fluorescence assay
Target sequence in this assay (P14902 whole entry): as above

[5] = molecular target: T1, Indoleamine 2,3-dioxygenase 1; test: Inhibition of full length recombinant human His-tagged IDO1 expressed in mouse LLTC cells using L-tryptophan as substrate after 24 hrs in presence of GSH; assay type: cell-based
Target sequence in this assay (P14902 whole entry): as above

[6] = molecular target: Indoleamine 2,3-dioxygenase 1 (Homo sapiens, UniProt P14902, S167A)
[7] = molecular target: T1, Indoleamine 2,3-dioxygenase 1; test: Inhibition of recombinant human IDO1 expressed in bacterial expression system using L-Tryptophan as substrate after 25 mins in absence of GSH and presence of tween20 by fluorescence assay
Target sequence in this assay (P14902 whole entry): as above

[8] = molecular target: T1, Indoleamine 2,3-dioxygenase 1; test: Inhibition of recombinant human IDO1 expressed in bacterial expression system using L-Tryptophan as substrate after 25 mins in absence of GSH and tween20 by fluorescence assay
Target sequence in this assay (P14902 whole entry): as above

[9] = system: LLTC cell line; test: Cytotoxicity against mouse LLTC cells assessed as reduction in cell viability after 24 hrs in presence of GSH by MTT assay; assay type: cell-based
[10] = molecular target: T1, Indoleamine 2,3-dioxygenase 1; settings: 40 uM
Target sequence in this assay (P14902 whole entry, looked up): as the sequence (P14902 whole entry) above

Sequence of Indoleamine 2,3-dioxygenase 1 (Homo sapiens, UniProt P14902, S167A) (P14902 whole entry S167A): as the sequence (P14902 whole entry) above, with S167A counted along it

With `Oc1nccc(SCc2ccc(Cl)cc2Cl)n1` the CC50 at 24 h [1] was greater than 117 µM, the Ratio IC50 [2] was 3 and the IC50 [3] was 4.4 µM. It also gave an IC50 [4] of 0.75 µM, an IC50 [5] of 0.2 to 3 µM and an IC50 [6] of 20 µM. For the same molecule, the IC50 [7] was 7.5 µM, the IC50 [8] was 4.3 µM and the Activity [9] was “Non-Toxic”. For the same molecule, the inhibition [10] was less than 25%.
